Laboratory results as given in PubChem BioAssay (NCI).
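Step 1: Grow cells in 96-well plates. Step 2: Expose to compound for 48 hours at 5 concentrations. Step 3: Interpolate endpoints linearly; if unreached, use highest concentration. The concentration for full growth arrest is given as TGI.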

What was measured:
Assay in all cases: DTP human tumour cell line panel, 48 h
SF-295 CNS = test system: SF-295 CNS
MCF7 breast = test system: MCF7 breast
NCI/ADR-RES ovarian = test system: NCI/ADR-RES ovarian
RXF 393 renal = test system: RXF 393 renal
HCT-116 colon = test system: HCT-116 colon
HT29 colon = test system: HT29 colon
SK-MEL-2 melanoma = test system: SK-MEL-2 melanoma
OVCAR-5 ovarian = test system: OVCAR-5 ovarian
HCT-15 colon = test system: HCT-15 colon
NCI-H460 lung = test system: NCI-H460 lung
OVCAR-4 ovarian = test system: OVCAR-4 ovarian
K-562 leukemia = test system: K-562 leukemia
NCI-H226 lung = test system: NCI-H226 lung
HL-60(TB) leukemia = test system: HL-60(TB) leukemia
CAKI-1 renal = test system: CAKI-1 renal
HS 578T breast = test system: HS 578T breast
UO-31 renal = test system: UO-31 renal
A498 renal = test system: A498 renal
CCRF-CEM leukemia = test system: CCRF-CEM leukemia
HOP-62 NSCLC = test system: HOP-62 NSCLC
SK-MEL-5 melanoma = test system: SK-MEL-5 melanoma
MDA-N = test system: MDA-N
NCI-H522 lung = test system: NCI-H522 lung
HOP-92 NSCLC = test system: HOP-92 NSCLC
SF-539 CNS = test system: SF-539 CNS
M14 melanoma = test system: M14 melanoma
SW-620 colon = test system: SW-620 colon
SN12C renal = test system: SN12C renal
HCC-2998 colon = test system: HCC-2998 colon
TK-10 renal = test system: TK-10 renal
DU-145 prostate = test system: DU-145 prostate
KM12 colon = test system: KM12 colon
MDA-MB-435 = test system: MDA-MB-435
SK-OV-3 ovarian = test system: SK-OV-3 ovarian
UACC-257 melanoma = test system: UACC-257 melanoma
OVCAR-8 ovarian = test system: OVCAR-8 ovarian
MDA-MB-231 breast = test system: MDA-MB-231 breast
IGROV1 ovarian = test system: IGROV1 ovarian
T-47D breast = test system: T-47D breast
EKVX NSCLC = test system: EKVX NSCLC
SR leukemia = test system: SR leukemia
BT-549 breast = test system: BT-549 breast
SF-268 CNS = test system: SF-268 CNS
COLO 205 colon = test system: COLO 205 colon
SNB-19 CNS = test system: SNB-19 CNS
PC-3 prostate = test system: PC-3 prostate
MALME-3M melanoma = test system: MALME-3M melanoma
ACHN renal = test system: ACHN renal
786-0 renal = test system: 786-0 renal
UACC-62 melanoma = test system: UACC-62 melanoma
LOX IMVI melanoma = test system: LOX IMVI melanoma
A549 NSCLC = test system: A549 NSCLC
OVCAR-3 ovarian = test system: OVCAR-3 ovarian
NCI-H23 lung = test system: NCI-H23 lung
U251 CNS = test system: U251 CNS
SNB-75 CNS = test system: SNB-75 CNS
SK-MEL-28 melanoma = test system: SK-MEL-28 melanoma
MOLT-4 leukemia = test system: MOLT-4 leukemia

For COC(=O)C1=C(O)C(C(=O)OC)[C@@]2(O)[C@@H](C(=O)OC)C(c3ccc(OC(=O)/C=C/c4ccccc4)cc3)C[C@@H]1[C@@H]2C(=O)OC (stereo partly specified), the TGI (SF-295 CNS) was over 100 µM, the TGI (MCF7 breast) was over 100 µM and the TGI (NCI/ADR-RES ovarian) was over 100 µM. The TGI (RXF 393 renal) was 19.1 µM, the TGI (HCT-116 colon) was 17.8 µM and the TGI (HT29 colon) was 17 µM. It also gave a TGI (SK-MEL-2 melanoma) of 21.9 µM, a TGI (OVCAR-5 ovarian) of 30.2 µM and a TGI (HCT-15 colon) of 46.7 µM. It also gave a TGI (NCI-H460 lung) of 7.8 µM, a TGI (OVCAR-4 ovarian) of over 100 µM and a TGI (K-562 leukemia) of over 100 µM. It also gave a TGI (NCI-H226 lung) of 60.1 µM, a TGI (HL-60(TB) leukemia) of 32.6 µM and a TGI (CAKI-1 renal) of 73 µM. The TGI (HS 578T breast) was over 100 µM, the TGI (UO-31 renal) was 25.5 µM and the TGI (A498 renal) was over 100 µM. The TGI (CCRF-CEM leukemia) was over 100 µM, the TGI (HOP-62 NSCLC) was over 100 µM and the TGI (SK-MEL-5 melanoma) was 28.8 µM. The TGI (MDA-N) was 13.1 µM, the TGI (NCI-H522 lung) was over 100 µM and the TGI (HOP-92 NSCLC) was over 100 µM. For the same compound, the TGI (SF-539 CNS) was 8.86 µM, the TGI (M14 melanoma) was 30.5 µM and the TGI (SW-620 colon) was over 100 µM. For the same compound, the TGI (SN12C renal) was 27.3 µM, the TGI (HCC-2998 colon) was 27.3 µM and the TGI (TK-10 renal) was 33.6 µM. It also gave a TGI (DU-145 prostate) of over 100 µM, a TGI (KM12 colon) of over 100 µM and a TGI (MDA-MB-435) of over 100 µM. For the same compound, the TGI (SK-OV-3 ovarian) was over 100 µM, the TGI (UACC-257 melanoma) was 25.4 µM and the TGI (OVCAR-8 ovarian) was over 100 µM. It also gave a TGI (MDA-MB-231 breast) of 63.6 µM, a TGI (IGROV1 ovarian) of over 100 µM and a TGI (T-47D breast) of over 100 µM. It also gave a TGI (EKVX NSCLC) of 37.7 µM, a TGI (SR leukemia) of 22.5 µM and a TGI (BT-549 breast) of 60.1 µM. It also gave a TGI (SF-268 CNS) of over 100 µM, a TGI (COLO 205 colon) of 23.4 µM and a TGI (SNB-19 CNS) of over 100 µM. The TGI (PC-3 prostate) was over 100 µM, the TGI (MALME-3M melanoma) was over 100 µM and the TGI (ACHN renal) was over 100 µM. For the same compound, the TGI (786-0 renal) was 42.5 µM, the TGI (UACC-62 melanoma) was 22.6 µM and the TGI (LOX IMVI melanoma) was 5.75 µM. The TGI (A549 NSCLC) was over 100 µM, the TGI (OVCAR-3 ovarian) was 94 µM and the TGI (NCI-H23 lung) was over 100 µM. It also gave a TGI (U251 CNS) of 28.5 µM, a TGI (SNB-75 CNS) of over 100 µM and a TGI (SK-MEL-28 melanoma) of over 100 µM.

CCNCCCNc1c2ccccc2nc2ccccc12 was tested, and the TGI (SF-295 CNS) was 2.81 µM, the TGI (MCF7 breast) was 0.625 µM and the TGI (NCI/ADR-RES ovarian) was 10.2 µM. The TGI (RXF 393 renal) was 2.83 µM, the TGI (HCT-116 colon) was 8.36 µM and the TGI (HT29 colon) was over 100 µM. It also gave a TGI (SK-MEL-2 melanoma) of 1.95 µM, a TGI (OVCAR-5 ovarian) of 1.04 µM and a TGI (HCT-15 colon) of 1.54 µM. For the same compound, the TGI (NCI-H460 lung) was 0.585 µM, the TGI (OVCAR-4 ovarian) was 3.2 µM and the TGI (K-562 leukemia) was 1.64 µM. The TGI (HL-60(TB) leukemia) was 54.9 µM, the TGI (CAKI-1 renal) was 1.23 µM and the TGI (HS 578T breast) was 3.13 µM. For the same compound, the TGI (UO-31 renal) was 2.63 µM, the TGI (A498 renal) was 3.2 µM and the TGI (CCRF-CEM leukemia) was 10.1 µM. The TGI (HOP-62 NSCLC) was 2.37 µM, the TGI (SK-MEL-5 melanoma) was 1.47 µM and the TGI (MDA-N) was 1.26 µM. It also gave a TGI (NCI-H522 lung) of 0.7 µM, a TGI (HOP-92 NSCLC) of 3.11 µM and a TGI (SF-539 CNS) of 1.21 µM. It also gave a TGI (M14 melanoma) of 0.95 µM, a TGI (SW-620 colon) of 1.46 µM and a TGI (SN12C renal) of 2.2 µM. For the same compound, the TGI (HCC-2998 colon) was 0.643 µM, the TGI (TK-10 renal) was 16 µM and the TGI (DU-145 prostate) was 4.01 µM. For the same compound, the TGI (KM12 colon) was 2.04 µM, the TGI (MDA-MB-435) was 1.77 µM and the TGI (SK-OV-3 ovarian) was 6.55 µM. It also gave a TGI (UACC-257 melanoma) of 1.7 µM, a TGI (OVCAR-8 ovarian) of 3.7 µM and a TGI (MDA-MB-231 breast) of 2.5 µM. The TGI (IGROV1 ovarian) was 4.3 µM, the TGI (T-47D breast) was 3.35 µM and the TGI (EKVX NSCLC) was 21.2 µM. For the same compound, the TGI (SR leukemia) was 1.83 µM, the TGI (BT-549 breast) was 10.5 µM and the TGI (SF-268 CNS) was 4.47 µM. For the same compound, the TGI (COLO 205 colon) was 0.761 µM, the TGI (SNB-19 CNS) was 2.98 µM and the TGI (PC-3 prostate) was 0.816 µM. It also gave a TGI (MALME-3M melanoma) of 2.26 µM, a TGI (ACHN renal) of 0.47 µM and a TGI (786-0 renal) of 5.39 µM. For the same compound, the TGI (UACC-62 melanoma) was 1.62 µM, the TGI (MOLT-4 leukemia) was over 100 µM and the TGI (LOX IMVI melanoma) was 1.08 µM. For the same compound, the TGI (A549 NSCLC) was 3.38 µM, the TGI (OVCAR-3 ovarian) was 2 µM and the TGI (NCI-H23 lung) was 2.14 µM. The TGI (U251 CNS) was over 100 µM, the TGI (SNB-75 CNS) was 1.58 µM and the TGI (SK-MEL-28 melanoma) was 1.48 µM.

For O=c1n(-c2ccc(Cl)c(Cl)c2)c(=O)n(-c2ccc(Cl)c(Cl)c2)c(=O)n1-c1ccc(Cl)c(Cl)c1, the TGI (SF-295 CNS) was 6.62 µM, the TGI (MCF7 breast) was 5.03 µM and the TGI (NCI/ADR-RES ovarian) was 11.2 µM. For the same compound, the TGI (RXF 393 renal) was 7.85 µM, the TGI (HCT-116 colon) was 5.5 µM and the TGI (HT29 colon) was 10.9 µM. For the same compound, the TGI (SK-MEL-2 melanoma) was 4.53 µM, the TGI (OVCAR-5 ovarian) was 8.91 µM and the TGI (HCT-15 colon) was 6.98 µM. It also gave a TGI (NCI-H460 lung) of 10.7 µM, a TGI (OVCAR-4 ovarian) of 12.1 µM and a TGI (K-562 leukemia) of 9.05 µM. For the same compound, the TGI (NCI-H226 lung) was 9.61 µM, the TGI (HL-60(TB) leukemia) was over 24.2 µM and the TGI (CAKI-1 renal) was 7.07 µM. It also gave a TGI (HS 578T breast) of 10 µM, a TGI (UO-31 renal) of 9.73 µM and a TGI (A498 renal) of 7.52 µM. For the same compound, the TGI (CCRF-CEM leukemia) was 4.5 µM, the TGI (HOP-62 NSCLC) was 12.4 µM and the TGI (SK-MEL-5 melanoma) was 3.44 µM. The TGI (MDA-N) was 8.02 µM, the TGI (NCI-H522 lung) was 11.5 µM and the TGI (HOP-92 NSCLC) was 2.37 µM. It also gave a TGI (SF-539 CNS) of 2.77 µM, a TGI (M14 melanoma) of 13.1 µM and a TGI (SW-620 colon) of 10.2 µM. For the same compound, the TGI (SN12C renal) was over 31.6 µM, the TGI (HCC-2998 colon) was over 46.7 µM and the TGI (TK-10 renal) was 17.3 µM. It also gave a TGI (DU-145 prostate) of 12 µM, a TGI (KM12 colon) of 7.14 µM and a TGI (MDA-MB-435) of 16.5 µM. For the same compound, the TGI (SK-OV-3 ovarian) was 3.16 µM, the TGI (UACC-257 melanoma) was 5.73 µM and the TGI (OVCAR-8 ovarian) was 8.7 µM. It also gave a TGI (MDA-MB-231 breast) of 4.32 µM, a TGI (IGROV1 ovarian) of 15 µM and a TGI (T-47D breast) of 12.6 µM. It also gave a TGI (SR leukemia) of 8.09 µM, a TGI (BT-549 breast) of 8.49 µM and a TGI (SF-268 CNS) of 6.69 µM. It also gave a TGI (COLO 205 colon) of 1.95 µM, a TGI (SNB-19 CNS) of 14.2 µM and a TGI (PC-3 prostate) of 4.72 µM. For the same compound, the TGI (MALME-3M melanoma) was over 27.8 µM, the TGI (ACHN renal) was 6.43 µM and the TGI (786-0 renal) was 7.84 µM. It also gave a TGI (UACC-62 melanoma) of 11.2 µM, a TGI (MOLT-4 leukemia) of 4.6 µM and a TGI (LOX IMVI melanoma) of 7.16 µM. It also gave a TGI (A549 NSCLC) of 6.37 µM, a TGI (OVCAR-3 ovarian) of 13.5 µM and a TGI (NCI-H23 lung) of 4.91 µM. It also gave a TGI (U251 CNS) of 10.6 µM, a TGI (SNB-75 CNS) of 7.75 µM and a TGI (SK-MEL-28 melanoma) of 15.1 µM.
